Target: T1, AR (Homo sapiens, UniProt P10275, T878A)
T1 construct: into the androgen-dependent PCa cells (LNCaP); endogenous in cells; host or cells: LNCaP-ARR2PB-eGFP
T1 sequence (P10275 1-920 T878A): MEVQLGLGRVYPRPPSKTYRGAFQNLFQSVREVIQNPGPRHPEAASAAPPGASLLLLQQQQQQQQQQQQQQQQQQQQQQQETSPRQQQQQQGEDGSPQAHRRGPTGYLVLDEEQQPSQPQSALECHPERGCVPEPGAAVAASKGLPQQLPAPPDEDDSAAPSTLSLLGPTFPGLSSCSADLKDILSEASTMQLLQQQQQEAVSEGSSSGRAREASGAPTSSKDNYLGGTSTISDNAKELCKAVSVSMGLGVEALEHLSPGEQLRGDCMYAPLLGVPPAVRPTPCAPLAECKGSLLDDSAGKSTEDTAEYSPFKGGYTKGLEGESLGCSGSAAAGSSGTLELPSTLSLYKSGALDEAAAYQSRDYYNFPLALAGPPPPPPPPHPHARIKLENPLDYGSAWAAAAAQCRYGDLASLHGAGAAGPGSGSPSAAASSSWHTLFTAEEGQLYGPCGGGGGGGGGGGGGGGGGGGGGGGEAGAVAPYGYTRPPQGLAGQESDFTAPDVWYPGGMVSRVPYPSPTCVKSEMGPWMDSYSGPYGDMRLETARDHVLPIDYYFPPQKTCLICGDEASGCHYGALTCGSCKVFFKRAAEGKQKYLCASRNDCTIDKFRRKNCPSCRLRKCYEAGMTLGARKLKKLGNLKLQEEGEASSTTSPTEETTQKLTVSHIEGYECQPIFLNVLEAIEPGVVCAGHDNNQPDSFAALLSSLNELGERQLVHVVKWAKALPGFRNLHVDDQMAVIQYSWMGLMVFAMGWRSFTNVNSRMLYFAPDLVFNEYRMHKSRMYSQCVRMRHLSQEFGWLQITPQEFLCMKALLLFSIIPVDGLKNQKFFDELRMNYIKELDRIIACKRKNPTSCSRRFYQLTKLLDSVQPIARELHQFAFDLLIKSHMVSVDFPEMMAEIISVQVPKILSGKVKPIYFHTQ
Assay: AR transcriptional activity, LNCaP-ARR2PB-eGFP reporter cells
Format: cell-based
Details: read-out: IC50 AR transcriptional activities
Source text: Detection principles: We conducted a stable transfection of promoter ARR2PB known for its strong AR responsiveness, into the androgen-dependent PCa cells (LNCaP). The expression of enhanced green fluorescent protein (eGFP) is depending on the degree of activation of AR. Therefore, LNCaP-ARR2PB-eGFP cell line could quantitatively determine the AR antagonistic activities of the compounds by evaluating the expression of eGFP.

Row | IC50 | Compound
1 | 410 nM | Cc1oc(-c2cccc(C#N)c2)cc1C(=O)Nc1nc(CC(C)N2CCCC2)ns1 (centres unmarked) [Compound A-46, 5-(3-Cyanophenyl)-2-methyl-N-(3-(2-(pyrrolidin-1-yl)propyl)-1,2,4-thiadiazol-5-yl)furan-3-carboxamide]
2 | 210 nM | COc1cccc(-c2cc(C(=O)Nc3nc(CC(C)N4CCCCC4)ns3)c(C)o2)c1 (centres unmarked) [Compound A-49, 5-(3-Methoxyphenyl)-2-methyl-N-(3-(2-(piperidin-1-yl)propyl)-1,2,4-thiadiazol-5-yl)furan-3-carboxamide]
3 | 760 nM | Cc1oc(-c2cccc(C#N)c2)cc1C(=O)Nc1nc(CC(C)N2CCOCC2)ns1 (centres unmarked) [Compound A-52, 5-(3-Cyanophenyl)-2-methyl-N-(3-(2-morpholinopropyl)-1,2,4-thiadiazol-5-yl)furan-3-carboxamide]
4 | 840 nM | Cc1oc(-c2cccc(C#N)c2)cc1C(=O)Nc1nc(CC(C)N2CCN(C)CC2)ns1 (centres unmarked) [Compound A-56, 5-(3-Cyanophenyl)-2-methyl-N-(3-(2-(4-methylpiperazin-1-yl)propyl)-1,2,4-thiadiazol-5-yl)furan-3-carboxamide]
5 | 390 nM | Cc1oc(-c2cccc(C(F)(F)F)c2)cc1C(=O)Nc1nc(CC(C)O)ns1 (centres unmarked) [Compound A-60, N-(3-(2-hydroxypropyl)-1,2,4-thiadiazol-5-yl)-2-methyl-5-(3-(trifluoromethyl)phenyl)furan-3-carboxamide]
6 | 3820 nM | COC(C)Cc1nsc(NC(=O)c2cc(-c3cccc(C(F)(F)F)c3)oc2C)n1 (centres unmarked) [Compound A-61, N-(3-(2-methoxypropyl)-1,2,4-thiadiazol-5-yl)-2-methyl-5-(3-(trifluoromethyl)phenyl)furan-3-carboxamide]
7 | 540 nM | C/C(Cc1nsc(NC(=O)c2cc(-c3cccc(C(F)(F)F)c3)oc2C)n1)=N\O [Compound A-69, N-(3-(2-(hydroxyimino)propyl)-1,2,4-thiadiazol-5-yl)-2-methyl-5-(3-(trifluoromethyl)phenyl)furan-3-carboxamide]
8 | 880 nM | CO/N=C(\C)Cc1nsc(NC(=O)c2cc(-c3cccc(C(F)(F)F)c3)oc2C)n1 [Compound A-70, N-(3-(2-(methoxyimino)propyl)-1,2,4-thiadiazol-5-yl)-2-methyl-5-(3-(trifluoromethyl)phenyl)furan-3-carboxamide]
9 | 810 nM | CC(Cc1nsc(NC(=O)c2cc(-c3cccc(C(F)(F)F)c3)oc2C)n1)=C(F)F [Compound A-80, N-(3-(3,3-difluoro-2-methylallyl)-1,2,4-thiadiazol-5-yl)-2-methyl-5-(3-(trifluoromethyl)phenyl)furan-3-carboxamide]
10 | 770 nM | Cc1oc(-c2cccc(C(F)(F)F)c2)cc1C(=O)Nc1nc(CC(C)(F)F)ns1 [Compound A-85, N-(3-(2,2-difluoropropyl)-1,2,4-thiadiazol-5-yl)-2-methyl-5-(3-(trifluoromethyl)phenyl) furan-3-carboxamide]
11 | 50 nM | Cc1oc(-c2cccc(C(F)(F)F)c2)cc1C(=O)Nc1nc(CC(C)(C)O)ns1 [Compound A-90, N-(3-(2-hydroxy-2-methylpropyl)-1,2,4-thiadiazol-5-yl)-2-methyl-5-(3-(trifluoromethyl)phenyl)furan-3-carboxamide]

Row | Compound | IC50
12 | Cc1oc(-c2cccc(OC(F)(F)F)c2)cc1C(=O)Nc1nc(CC(C)N(C)C)ns1 (centres unmarked) [Compound A-44, N-(3-(2-(dimethylamino)propyl)-1,2,4-thiadiazol-5-yl)-2-methyl-5-(3-(trifluoromethoxy)phenyl)furan-3-carboxamide] | 60 nM
13 | CCN(CC)C(C)Cc1nsc(NC(=O)c2cc(-c3cccc(OC(F)F)c3)oc2C)n1 (centres unmarked) [Compound A-45, N-(3-(2-(diethylamino)propyl)-1,2,4-thiadiazol-5-yl)-5-(3-(difluoromethoxy)phenyl)-2-methylfuran-3-carboxamide] | 40 nM
14 | Cc1oc(-c2cccc(C(F)(F)F)c2)cc1C(=O)Nc1nc(CC(C)N)ns1 (centres unmarked) [Compound A-66, N-(3-(2-aminopropyl)-1,2,4-thiadiazol-5-yl)-2-methyl-5-(3-(trifluoromethyl)phenyl)furan-3-carboxamide] | 1390 nM

From patent US20240376091A1, “THIADIAZOLEAMIDE DERIVATIVES AND THEIR APPLICATIONS” (ZHEJIANG UNIVERSITY, priority 2021, published 2024)
